The record followed here is patent US8906884B2, “Method of treating graft-rejection using dextran sulfate” (TX Medic AB, priority 2002, dated 2014).

This assay concerns API graft in diabetic athymic mice. Particulars: implantation site liver, i.v. treatment, n = 5; duration of normoglycemia. Here is the method: Diabetes was induced in athymic mice by intravenous (i.v.) injection of steptozotocin from Sigma Chemicals (Palo Alto, Calif., USA) according to Wennberg et al.. The steptozotocin dose was 250 mg/kg body weight for the athymic mice. An animal was considered diabetic if its blood glucose (B-glucose) level exceeded 20 mmol/l (>360 mg/dl) for 2 or more consecutive days.
After being cultured for 4 days, 5 μl of API (˜5000 IEQs) from five isolations were transplanted into the liver via the portal vein of 11 male inbred diabetic athymic mice, which were anesthetized during surgery with isoflurene. […] Six (untreated) mice were injected with an equivalent volume of saline in the same manner.
Blood glucose levels were measured in blood obtained from tails of recipients using a Glucometer Elite® B-glucose measuring instrument (Bayer AB, Gothenburg, Sweden). Measurements were taken daily before 12 am and expressed as mmol/l (1 mmol/l≈18 mg/dl). Loss of graft function was considered to have occurred if B-glucose levels exceeded 11.1 mmol/l (>200 mg/dl) for 2 or more consecutive days. Post-transplant duration of normoglycemia (<200 mg/dl) was defined as the graft survival period.

As to “Low molecular weight dextran sulfate [LMW-DS]”, the “Mean graft survival” value came to 8.8 ± 1.9 days.
